# Assay results as given in publication PMC6345779, “Hypoculoside, a sphingoid base-like compound from Acremonium disrupts the membrane integrity of yeast cells” (Scientific Reports, 2019).
# Assays:
# [1] = test system: Saccharomyces cerevisiae cells; test: Recovery of yeast cells on compound-free YPD agar after treatment (cytocidal vs cytostatic); format: cell-based; conditions: 21 µM for 24 h, then transfer to hypoculoside-free YPD agar plates
# Procedure: We evaluated the potency of hypoculoside by examining its effect on the growth of Candida albicans strain (SC5314) using the Clinical and Laboratory Standards Institute (CLSI) guidelines. We used the well-known antifungal amphotericin B as a positive control. We exposed logarithmically growing Candida albicans cells to hypoculoside and amphotericin B at various concentrations and monitored the growth by recording the OD600 nm after 24 hours. […] We also tested the effect of hypoculoside on the growth of the Saccharomyces cerevisiae strain (BY4743). […] To test whether hypoculoside has cytocidal or cytostatic activity, we examined the ability of Saccharomyces cerevisiae cells to recover following treatment with either hypoculoside (21 µM) or DMSO for 24 h.
# (§1) Legends for Supplementary figures and tables
# (§2) Figure S1 Analysis of hypoculoside by MS/MS
# (§3) Collision-Induced dissociation (CID) MS/MS fragmentation spectra of hypoculoside (8) generated at energies of 10 eV, 20 eV and 40 eV are depicted in panels A, B and C […]
# (§4) Figure S2 Hypoculoside has antifungal, antibacterial and mammalian cytotoxic […]
# B. Saccharomyces cerevisiae cultures in duplicate were treated with hypoculoside at the indicated concentrations in YPD medium at 30 °C for 24 hours. Growth of the yeast cultures as measured by OD600 nm is plotted against hypoculoside concentration. […]
# [2] = test system: Klebsiella aerogenes (ATCC 13048); test: Antibacterial growth inhibition assay; format: cell-based; conditions: Gram-negative
# Procedure: (§5) Effect of hypoculoside on the growth of three bacterial strains Staphylococcus aureus (ATCC 25923), Pseudomonas aeruginosa (ATCC 9027) and Klebsiella aerogenes (ATCC 13048) was assessed as previously described. Cytotoxicity of hypoculoside on the A549 human lung cell line and the pancreatic carcinoma cell lines MIA PaCa-2 and PANC-1 was determined as described before. A549 and MIA PaCa-2 were seeded at 1,500 cells per well, and PANC-1 cells were seeded at 2,500 cells per well in a 384-well microplate. Cells were treated with hypoculoside at various concentrations and incubated for 72 hours at 37 °C in the presence of 5% CO2. Cytotoxic effect of hypoculoside was measured using the PrestoBlue™ cell viability reagent (Life Technologies). Following incubation of the microplates with the dye for 2 hours, the fluorescence reading (Excitation/Emission: 560 nm/590 nm) was recorded using the Tecan Infinite M1000 Pro reader.
# as §1, §2, §3, §4
# (§6) A. Logarithmically growing Candida albicans cells were exposed to hypoculoside and amphotericin B at the indicated concentrations in triplicates in a 96-well microplate. A picture of the microplate after 24 hours of incubation at 30 °C is […]
# (§7) B. Saccharomyces cerevisiae cultures in duplicate were treated with hypoculoside at the indicated concentrations in YPD medium at 30 °C for 24 hours. Growth of the yeast cultures as measured by OD600 nm is plotted against hypoculoside concentration. Yeast cells treated with either DMSO or 21 µM hypoculoside for 24 hours were then washed in YPD and plated at different dilutions on a YPD agar and incubated at 30 °C. The YPD agar plate was photographed after 2 […]
# C. […]
# [3] = test system: Pseudomonas aeruginosa (ATCC 9027); test: Antibacterial growth inhibition assay; format: cell-based; conditions: Gram-negative
# Procedure: as §5, §1, §2, §3, §4, §6, §7
# C. […]
# [4] = test system: Staphylococcus aureus (ATCC 25923); test: Antibacterial growth inhibition assay; format: cell-based; conditions: ATCC25923, Gram-positive, read-out: IC50 against Staphylococcus aureus
# Procedure: as §5, §1, §2, §3, §4, §6, §7
# C. […]
# [5] = Mammalian cell cytotoxicity assay (PrestoBlue cell viability, 72 hours); format: cell-based; conditions: human, A549, MIA PaCa-2, PANC-1, one range for the lines, read-out: cytotoxicity IC50 against human lung and pancreatic carcinoma cell lines
# Procedure: as §5
# [6] = test system: Wild type strain (BY4743); test: Rescue of myriocin-induced growth inhibition in yeast; format: cell-based, Saccharomyces cerevisiae
# Procedure: Myriocin is an inhibitor of Serine palmitoyltransferase (SPT), which catalyzes the first step in the synthesis of sphingolipid biosynthesis. Addition of PHS or DHS can rescue inhibition caused by myriocin[28]. We tested whether hypoculoside can rescue the toxicity of myriocin–treated cells.
# Wild type strain (BY4743) was grown in YPD medium containing different concentrations of myriocin and either phytosphingosine (PHS) or dihydrosphingosine (DHS) or hypoculoside (HYP) at the indicated concentrations. Normalized growth at the different concentrations after 24 hours of incubation at 30 °C is plotted for the various cultures.
# [7] = test system: vacuoles of wild type yeast cells; test: FM 4-64 fluorescence microscopy of vacuolar structure; format: cell-based, Saccharomyces cerevisiae; conditions: 11.6 µM, FM 4-64 pre-labelled wild type cells, N = 100 cells
# Procedure: As several vacuolar transport mutants were sensitive to hypoculoside (Fig. 3), we examined the effect of hypoculoside on the vacuolar structure of yeast cells. We incubated wild type yeast cells with FM 4–64, a dye that stains the vacuolar membranes, for 1 hour. We then washed off the excess FM 4–64 from the medium and transferred the cells into fresh medium with either hypoculoside or hypoculine or DMSO. […] In contrast, about 50% of 11.6 µM hypoculoside-treated cells had defective vacuoles (Fig. 7B). However, only 3% of 11.6 µM hypoculine-treated cells had defective vacuoles. Thus, the effect of hypoculoside and hypoculine on vacuolar structure correlates with their inhibitory activities.
# Figure 7 Hypoculoside but not hypoculine disrupts the vacuolar structure of yeast cells. Wild type yeast cells containing vacuoles pre-labelled with the lipophilic dye FM 4-64 were exposed to either DMSO or hypoculoside or hypoculine at the indicated concentrations for 1 hour. Effects of the compounds on vacuolar morphology was analyzed by fluorescence microscopy. […] (B) Quantification of the various categories for cells treated with either DMSO or hypoculoside or hypoculine is plotted (N = 100 cells). […]
# Labeling of yeast cells with FM4-64 (Invitrogen) was done as previously reported. […] The images were acquired using an inverted fluorescence microscope ZEISS LSM 5 LIVE (Carl Zeiss, Oberkochen, Germany).
smiles,measurement,setting,value
"CC(N)C(O)CCCCCCCCCCCCCCCCCCC(O)C(C)OC1OC(CO)C(O)C(O)C1O (centres unmarked) [hypoculoside, Hypoculoside]",cytocidal or cytostatic activity (ability to recover following treatment),[1],cytocidal activity
same,inhibitory activity against Klebsiella aerogenes,[2],not against Gram-negative bacteria
same,inhibitory activity against Pseudomonas aeruginosa,[3],not against Gram-negative bacteria
same,IC50,[4],11.7 µM
same,IC50 at 72 h,[5],9 to 14 µM
same,rescue of myriocin-induced inhibition,[6]; hypoculoside at the concentrations of Fig. 6,did not rescue
same,combined effect with myriocin on growth,[6]; total effect = sum of individual effects,additive effect
same,cells with defective vacuoles,[7],about 50%
